Experimental data published in patent publication US9925189B2, “Heterocyclic receptor agonists for the treatment of diabetes and metabolic disorders” (CymaBay Therapeutics, Inc., priority 2006, dated 2018).

target: T1, IC-GPCR2 (Homo sapiens, UniProt Q8TDV5, S309L); test: Stimulation of cAMP in CHO cells stably expressing IC-GPCR2 (HTRF cAMP assay); assay type: cell-based; details: 0.5 h, 30 minutes, IC-GPCR2 stably expressing CHO cells, read-out: Activity at 10 uM (% change in FRET signal from DMSO control)
T1 construct: expressed in transfected cells
T1 sequence (Q8TDV5 1-335 S309L): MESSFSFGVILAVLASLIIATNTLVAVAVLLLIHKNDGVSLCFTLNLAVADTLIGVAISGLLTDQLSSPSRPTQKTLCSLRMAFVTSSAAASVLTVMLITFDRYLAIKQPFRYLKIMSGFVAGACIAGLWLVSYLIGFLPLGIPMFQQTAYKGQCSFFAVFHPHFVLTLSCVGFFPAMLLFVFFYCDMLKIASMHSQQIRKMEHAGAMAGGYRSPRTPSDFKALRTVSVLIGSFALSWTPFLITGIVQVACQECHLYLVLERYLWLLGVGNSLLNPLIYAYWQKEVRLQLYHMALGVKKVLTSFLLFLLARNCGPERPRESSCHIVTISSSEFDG
In short: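 CHO cells stably expressing IC-GPCR2, plated at 17500 cells/well, treated next day for 30 min in Ham's F12 with compounds at 6–8 concentrations from 0.00003 to 10 μM; parental CHO cells also screened. Intracellular cAMP read by HTRF competitive immunoassay (665/620 nm ratio). Activity given as % FRET change from DMSO control.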

SMILES | activation at 10 µM [%]
CCC(=O)c1cc(F)c(OCc2csc(C3CCN(C(=O)OC(C)(C)C)CC3)n2)c(F)c1 [Example 124, 4-[4-(2,6-Difluoro-4-propionyl-phenoxymethyl)-thiazol-2-yl]-piperidine-1-carboxylic acid tert-butyl ester] | 80
CC(C)(C)OC(=O)N1CCC(c2nc(COc3ccc(C#N)cc3F)cs2)CC1 [Example 126, 4-[4-(4-Cyano-2-fluoro-phenoxymethyl)-thiazol-2-yl]-piperidine-1-carboxylic acid tert-butyl ester] | 87
CC(C)(C)OC(=O)N1CCC(c2nc(COc3ccc(-n4ccnn4)cc3)cs2)CC1 [Example 128, 4-[4-(4-[1,2,3]Triazol-1-yl-phenoxymethyl)-thiazol-2-yl]-piperidine-1-carboxylic acid tert-butyl ester] | 57
CC(C)(C)OC(=O)Nc1ccc(OCc2csc(C3CCN(C(=O)OC(C)(C)C)CC3)n2)cc1 [Example 130, 4-[4-(4-tert-Butoxycarbonylamino-phenoxymethyl)-thiazol-2-yl]-piperidine-1-carboxylic acid tert-butyl ester] | 53
CC(C)(C)OC(=O)N1CCC(c2nc(COc3ccc(C(=O)O)cc3)cs2)CC1 [Example 131, 4-[4-(4-Carboxy-phenoxymethyl)-thiazol-2-yl]-piperidine-1-carboxylic acid tert-butyl ester] | 24
CC(C)(C)OC(=O)N1CCC(c2nc(COc3c(F)cc(S(C)(=O)=O)cc3F)cs2)CC1 [Example 132, 4-[4-(2,6-Difluoro-4-methanesulfonyl-phenoxymethyl)-thiazol-2-yl]-piperidine-1-carboxylic acid tert-butyl ester] | 70
CC(C)(C)OC(=O)N1CCC(c2nc(COc3ccc(OCc4ccccc4)cc3)cs2)CC1 [Example 135, 4-[4-(4-Benzyloxy-phenoxymethyl)-thiazol-2-yl]-piperidine-1-carboxylic acid tert-butyl ester] | 66
CC(C)(C)OC(=O)N1CCC(c2nc(COc3ccccc3)cs2)CC1 [Example 137, 4-(4-Phenoxymethyl-thiazol-2-yl)-piperidine-1-carboxylic acid tert-butyl ester] | 35
CC(C)(C)OC(=O)N1CCC(c2nc(CNc3ccc(S(C)(=O)=O)cc3)cs2)CC1 [Example 138, 4-{4-[(4-Methanesulfonyl-phenylamino)-methyl]-thiazol-2-yl}-piperidine-1-carboxylic acid tert-butyl ester] | 64
CC(C)(C)OC(=O)N1CCC(c2nc(COc3ccc(Br)cc3)cs2)CC1 [Example 140, 4-[4-(4-Bromo-phenoxymethyl)-thiazol-2-yl]-piperidine-1-carboxylic acid tert-butyl ester] | 62
CC(C)(C)OC(=O)N1CCC(c2nc(CNCc3ccc(S(C)(=O)=O)cc3)cs2)CC1 [Example 142, 4-{4-[(4-Methanesulfonyl-benzylamino)-methyl]-thiazol-2-yl}-piperidine-1-carboxylic acid tert-butyl ester] | 78
O=C(OC1CCCCC1)N1CCC(c2nc(COc3ccc(-n4cnnn4)cc3)cs2)CC1 [Example 147, 4-[4-(4-Tetrazol-1-yl-phenoxymethyl)-thiazol-2-yl]-piperidine-1-carboxylic acid cyclohexyl ester] | 56
CCCN1CCC(c2nc(COc3ccc(-n4cnnn4)cc3)cs2)CC1 [Example 150, 1-Propyl-4-[4-(4-tetrazol-1-yl-phenoxymethyl)-thiazol-2-yl]-piperidine] | 32
O=C(CN1CCC(c2nc(COc3ccc(-n4cnnn4)cc3)cs2)CC1)c1ccc(OC(F)(F)F)cc1 [Example 153, 2-{4-[4-(4-Tetrazol-1-yl-phenoxymethyl)-thiazol-2-yl]-piperidin-1-yl}-1-(4-trifluoromethoxy-phenyl)-ethanone] | 44
CS(=O)(=O)N1CCC(c2nc(COc3ccc(-n4cnnn4)cc3)cs2)CC1 [Example 154, 1-Methanesulfonyl-4-[4-(4-tetrazol-1-yl-phenoxymethyl)-thiazol-2-yl]-piperidine] | 66
Cc1ccc(S(=O)(=O)N2CCC(c3nc(COc4ccc(-n5cnnn5)cc4)cs3)CC2)cc1 [Example 156, 4-[4-(4-Tetrazol-1-yl-phenoxymethyl)-thiazol-2-yl]-1-(toluene-4-sulfonyl)-piperidine] | 6
CC(C)(C)OCC(=O)N1CCC(c2nc(COc3ccc(-n4cnnn4)cc3)cs2)CC1 [Example 157, 2-tert-Butoxy-1-{4-[4-(4-tetrazol-1-yl-phenoxymethyl)-thiazol-2-yl]-piperidin-1-yl}-ethanone] | 57
CCc1cnc(N2CCC(c3nc(COc4c(F)cc(-n5cnnn5)cc4F)cs3)CC2)nc1 [Example 159, 2-{4-[4-(2,6-Difluoro-4-tetrazol-1-yl-phenoxymethyl)-thiazol-2-yl]-piperidin-1-yl}-5-ethyl-pyrimidine] | 78
CCc1cnc(N2CCC(c3nc(CNc4ccc(-n5cnnn5)cc4)cs3)CC2)nc1 [Example 161, {2-[1-(5-Ethyl-pyrimidin-2-yl)-piperidin-4-yl]-thiazol-4-ylmethyl}-(4-tetrazol-1-yl-phenyl)-amine] | 79
CC(C)c1cnc(N2CCC(c3nc(COc4ccc(-n5cnnn5)cc4F)cs3)CC2)nc1 [Example 162, 2-{4-[4-(2-Fluoro-4-tetrazol-1-yl-phenoxymethyl)-thiazol-2-yl]-piperidin-1-yl}-5-isopropyl-pyrimidine] | 79

The remaining lines, values ahead:

activation at 10 µM [%] | SMILES
78 | CC(=O)c1ccc(OCc2csc(C3CCN(C(=O)OC(C)(C)C)CC3)n2)c(F)c1 [Example 125, 4-[4-(4-Acetyl-2-fluoro-phenoxymethyl)-thiazol-2-yl]-piperidine-1-carboxylic acid tert-butyl ester]
43 | CCOC(=O)c1ccc(OCc2csc(C3CCN(C(=O)OC(C)(C)C)CC3)n2)cc1 [Example 129, 4-[4-(4-Ethoxycarbonyl-phenoxymethyl)-thiazol-2-yl]-piperidine-1-carboxylic acid tert-butyl ester]
61 | CC(C)(C)OC(=O)N1CCC(c2nc(COc3ccc(N4CCOCC4)cc3)cs2)CC1 [Example 133, 4-[4-(4-Morpholin-4-yl-phenoxymethyl)-thiazol-2-yl]-piperidine-1-carboxylic acid tert-butyl ester]
68 | CC(C)(C)OC(=O)N1CCC(c2nc(COc3ccc(SC(F)(F)F)cc3)cs2)CC1 [Example 134, 4-[4-(4-Trifluoromethylsulfanyl-phenoxymethyl)-thiazol-2-yl]-piperidine-1-carboxylic acid tert-butyl ester]
64 | CCc1cnc(N2CCC(c3nc(CNc4ccc(S(C)(=O)=O)cc4F)cs3)CC2)nc1 [Example 141, {2-[1-(5-Ethyl-pyrimidin-2-yl)-piperidin-4-yl]-thiazol-4-ylmethyl}-(2-fluoro-4-methanesulfonyl-phenyl)-amine]
63 | C[C@H](NCc1csc(C2CCN(C(=O)OC(C)(C)C)CC2)n1)c1ccc(S(C)(=O)=O)cc1 [Example 143, 4-(4-{[1-(4-Methanesulfonyl-phenyl)-ethylamino]-methyl}-thiazol-2-yl)-piperidine-1-carboxylic acid tert-butyl ester]
74 | CC(C)OC(=O)N1CCC(c2nc(COc3ccc(S(C)(=O)=O)cc3F)cs2)CC1 [Example 148, 4-[4-(2-Fluoro-4-methanesulfonyl-phenoxymethyl)-thiazol-2-yl]-piperidine-1-carboxylic acid isopropyl ester]
54 | CC(C)(C)C(=O)CN1CCC(c2nc(COc3ccc(-n4cnnn4)cc3)cs2)CC1 [Example 151, 3,3-Dimethyl-1-{4-[4-(4-tetrazol-1-yl-phenoxymethyl)-thiazol-2-yl]-piperidin-1-yl}-butan-2-one]
68 | CCCCN1CCC(c2nc(COc3ccc(-n4cnnn4)cc3)cs2)CC1 [Example 152, 1-Butyl-4-[4-(4-tetrazol-1-yl-phenoxymethyl)-thiazol-2-yl]-piperidine]
73 | CCCCCCCOC(=O)N1CCC(c2nc(COc3ccc(-n4cnnn4)cc3)cs2)CC1 [Example 155, 4-[4-(4-Tetrazol-1-yl-phenoxymethyl)-thiazol-2-yl]-piperidine-1-carboxylic acid heptyl ester]
77 | CCc1cnc(N2CCC(c3nc(COc4ccc(-n5cccc5)cc4)cs3)CC2)nc1 [Example 160, 5-Ethyl-2-{4-[4-(4-pyrrol-1-yl-phenoxymethyl)-thiazol-2-yl]-piperidin-1-yl}-pyrimidine]
68 | CCc1cnc(N2CCC(c3nc(COc4ccc(-n5cnnn5)cc4C)cs3)CC2)nc1 [Example 164, 5-Ethyl-2-{4-[4-(2-methyl-4-tetrazol-1-yl-phenoxymethyl)-thiazol-2-yl]-piperidin-1-yl}-pyrimidine]
71 | Clc1cnc(N2CCC(c3nc(COc4ccc(-n5cnnn5)cc4Cl)cs3)CC2)nc1 [Example 165, 5-Chloro-2-{4-[4-(2-chloro-4-tetrazol-1-yl-phenoxymethyl)-thiazol-2-yl]-piperidin-1-yl}-1-pyrimidine]
